Measured values reported in patent US4462819A, “Urease inhibited urea based fertilizer compositions containing organo boron acid compounds” (Allied Corporation, priority 1983, dated 1984).

What was measured:
urease [1] = test: Evaluation of urease inhibiting activity in soil, Test A (test compound and urea applied together); assay type: biochemical; parameters: key: A=excellent inhibition; B=partial inhibition; C=no inhibition; settings: 800 μg test compound and 42.8 mg urea in 20 g air-dry soil (Cazenovia sandy loam pH 7.2), 25° C., 3 days; remaining urea, relative to control without test compound
Experimental: Certain selected organo boron acid compounds were evaluated for urease inhibiting activity. The tests were run in a New York soil (Cazenovia sandy loam pH 7.2). Test A evaluations (run in triplicate) consisted of applying 800 μg of test compound in 5 mL water and 42.8 mg urea in 1 mL water to 20 g air-dry soil in a glass bottle. The bottle was capped with perforated aluminum foil and incubated at 25° C. for 3 days prior to extraction with a 100 mL 2M KCL solution containing 0.5 mg phenylmercuric acetate. The extracts were then analyzed for remaining urea using an autoanalyzer.

urease [2] = test: Evaluation of urease inhibiting activity in soil, Test B (test compound incubated in soil 3 days before urea was added); assay type: biochemical; parameters: key: A=excellent inhibition; B=partial inhibition; C=no inhibition; settings: 800 μg test compound incubated in 20 g soil (Cazenovia sandy loam pH 7.2) for 3 days before urea was added; analysis 3 days after urea addition; relative to control without test compound

Nc1ccccc1B(O)O [X, 2-Aminobenzeneboronic Acid]
% INHIBITION (TEST A) (urease [1]): C | % INHIBITION (TEST B) (urease [2]): A

Nc1ccc(B(O)O)cc1 [XII, 4-Aminobenzeneboronic Acid]
% INHIBITION (TEST A) (urease [1]): B | % INHIBITION (TEST B) (urease [2]): A

Cl.ONc1ccccc1B(O)O [XIII, 2-Hydroxylaminobenzeneboronic Acid Hydrochloride]
% INHIBITION (TEST A) (urease [1]): C | % INHIBITION (TEST B) (urease [2]): A

Cl.ONc1cccc(B(O)O)c1 [XIV, 3-Hydroxylaminobenzeneboronic Acid Hydrochloride]
% INHIBITION (TEST A) (urease [1]): B | % INHIBITION (TEST B) (urease [2]): B

OB(O)c1cccc(O)c1 [XIX, 3-Hydroxybenzeneboronic Acid]
% INHIBITION (TEST A) (urease [1]): B | % INHIBITION (TEST B) (urease [2]): A

Cl.ONc1ccc(B(O)O)cc1 [XV, 4-Hydroxylaminobenzeneboronic Acid Hydrochloride]
% INHIBITION (TEST A) (urease [1]): A | % INHIBITION (TEST B) (urease [2]): A

NC(=O)Nc1cccc(B(O)O)c1 [XVI, 3-Ureidophenylboric Acid]
% INHIBITION (TEST A) (urease [1]): C | % INHIBITION (TEST B) (urease [2]): B

OB1OCc2ccccc21 [XVII, Borphthalide]
% INHIBITION (TEST A) (urease [1]): C | % INHIBITION (TEST B) (urease [2]): A

OB1ON=Cc2ccccc21 [XVIII, 4-Hydroxy-4,3-boroxaroisoquinoline]
% INHIBITION (TEST A) (urease [1]): B | % INHIBITION (TEST B) (urease [2]): B
